This is an account of results in patent publication US8703787B2, “Methods of using ALK inhibitors” (IRM LLC, priority 2011, dated 2014).

SMILES strings stand for the structures.

One may read the IC50 as the concentration that gives 50% inhibition.

For series [1], the system named is NCI-H2228 cells. As to the kind of experiment: In vitro cell growth and proliferation (luciferase readout). Format: cell-based. Conditions: Homo sapiens, 72 h; NCI-H2228 with EML4-ALK, luciferase-expressing, 3 days incubation. On the procedure:
NCI-H2228 cells were obtained from the American Type Culture Collection (ATCC) (Manassa, USA) and modified by viral infection to stably express luciferase. For cell growth and proliferation assays, 2250 cells in 50 μL of RPMI media (Gibco, Carlsbad, Calif.) containing 10% fetal bovine serum (FBS) (Gibco, Carlsbad, Calif.) were plated into solid bottom, white 384-well plates (Corning, Acton, Mass.) using μ-Fill instrumentation (Bio-Tek). Plates were incubated 1 hour in a 37° C. tissue culture incubator prior to the addition of compound using MiniTrak instrumentation (Perkin-Elmer). 50 nL of a 1:3 dilution plate of compounds was added to the assay plates, resulting in final concentrations of 10000, 3333, 1111, 370, 123, 41, 14, 4.6, 1.5, 0.5 and 0.17 nM. After compound addition, plates were incubated for 3 days at 37° C. in a tissue culture incubator. At day 3, plates were assayed for cell growth and proliferation by means of measuring luciferase activity in each individual well. In detail, 25 μL of BRIGHT-GLO® (Promega, Madison, Wis.) or BRITELITE™ (PerkinElmer, Waltham, Mass.) was added to each well. After 10 minutes of incubation at room temperature, plates were read using either an Analyst-GT or an Envision plate reader (Molecular Devices, Sunnyvale, Calif.). […]

For series [2], the system named is NCI-H2228 tumors. As to the kind of experiment: Subcutaneous xenograft tumor model derived from NCI-H2228 cells. It counts as in vivo, mouse. An excerpt: The day of implantation, NCI-H2228 cells were harvested with 0.05% Trypsin/EDTA and resuspended in a mixture of RPMI 1640 serum-free medium and matrigel (BD Biosciences #354234, La Jolla, Calif.) at a ratio of 1:1. Five million cells were subcutaneously implanted into the right hind flank of SCID beige mouse. When the tumor size reached a volume of 300-400 mm3, the tumors were harvested and were cut into smaller pieces of 1-2 mm3 in culture medium for passage implanting subcutaneously. After the tumors were consecutively passaged three times in SCID beige mice, the tumors were considered as stock tumors for study implantation. The tumor pieces were kept in a mixture of RPMI1640 serum-free medium and matrigel at a ratio of 1:1 on wet ice for implanting in SCID beige mice. Implantation in […] mice: 2-3 pieces of the tumor with matrigel mixture were subcutaneously implanted into the right flank of the mice. After implantation, the tumors were callipered 3 times per week once tumors became palpable.
SCID beige mice bearing the H2228 tumors were randomized into 5 groups (n=4 mice per group) with an average tumor volume of 85±35 mm3. The test compound was administered by oral gavage. Its exposure in the tumor bearing female SCID beige mice was evaluated on day 14. Tumor growth was calculated by % T/C as follows: % T/C=(ΔT/ΔC)×100, where ΔT>0; or % T/C=(ΔT/ΔTI)×100, where ΔT<0. Changes in tumor volume (Δ volumes) for each treated (T) and control (C) group were calculated for each day tumors were measured by subtracting the median tumor volume on the day of first treatment (staging day) from the median tumor volume on the specified observation day.

Series [3] concerns crizotinib resistant NCI-H2228 tumors. As to the kind of experiment: Anti-tumor activity in crizotinib resistant NCI-H2228 xenograft tumors. It counts as in vivo, mouse. On the procedure: The mouse xenograft tumors derived from NCI-H2228 were treated with crizotinib continuously at 50 mg/kg for 9 days, then 75 mg/kg for 9 days and then 100 mg/kg for 33 days. Alternatively, after xenograft tumors derived from NCI-H2228 were treated with crizotinib for 14 days at 100 mg/kg, the treatment with crizotinib was stopped for a few days until tumors re-grew. Once tumors re-grew, animals were treated with crizotinib at 100 mg/kg until tumors became resistant to crizotinib treatment. Tumors from individual animal were harvested when they became resistant to crizotinib. A few such resistant tumors were randomly selected for further studies as described below. Each resistant tumor were cut into small pieces at harvest and implanted into 5 animals; when tumor size was big enough in the 5 animals, the tumors were harvested and then implanted into 25 animals for compound testing. A piece of harvested tumors was also used for RNA extraction and subsequently sequencing of EML4-ALK transcript.

A short description of series [4]: 4-wk GLP toxicology studies / exposure comparison. Format: in vivo. Conditions: based on 4-wk GLP toxicology studies, predicted.

`CC(C)Oc1cc2c(cc1Nc1ncc(Cl)c(Nc3ccccc3S(=O)(=O)C(C)C)n1)C(=O)N(C1CCN(C)CC1)C2` [Compound 6, 6-{5-Chloro-4-[2-(propane-2-sulfonyl)-phenylamino]-pyrimidin-2-ylamino}-5-isopropoxy-2-(1-methyl-piperidin-4-yl)-2,3-dihydro-isoindol-1-one]: inhibition in series [1] was half-maximal at 16 nM (IC50).

In the case of `Cc1cc(Nc2ncc(Cl)c(Nc3ccccc3S(=O)(=O)C(C)C)n2)c(OC(C)C)cc1C1CCNCC1` [Compound 1, 5-chloro-N2-(2-isopropoxy-5-methyl-4-(piperidin-4-yl)phenyl)-N4-[2-(propane-2-sulfonyl)-phenyl]-pyrimidine-2,4-diamine], in series [1], 11 nM corresponded to half-maximal inhibition (IC50). Further, the “animal body weight loss” value in series [2] (dosed orally at 25 mg/kg once a day for 2 weeks) is given as “not observed”. Further, the “anti-tumor activity (tumor regression)” value in series [2] (dosed orally at 25 mg/kg once a day for 2 weeks, FIG. 1) is recorded as “complete tumor regression”. For the same compound, the tolerability entry in series [2] (mouse, in vivo, po, 25 mg/kg) is listed as “well tolerated”. Moreover, the “anti-tumor growth activity in crizotinib resistant NCI-H2228” value in series [3] (FIG. 2) is on record as “significant anti-tumor growth activity”. In addition, in series [3] (other crizotinib resistant NCI-H2228 tumors, FIG. 3), the “activity compared with crizotinib at 100 mg/kg” value is on record as “better activity than crizotinib”. The “exposure associated with 50 mg/kg in mouse relative to exposure at the MTD in humans” value in series [4] was “below the exposure at the MTD in humans”.
